Laboratory results: EPA's ToxValDB 9.5
Values joined by “and” are separate entries in the source; they are usually repeats but may differ in a detail not shown here. Equal values may be shown once.

How the values were obtained:
Rattus norvegicus [1] = conditions: M/F
Rattus norvegicus [2] = conditions: short-term; duration: 28 days; oral; gavage; M/F; Wistar; Body Weight Changes: Weight gain decrease + Food Consumption: decrease + Blood Chemistry: T-Cho decrease TG decrease ALP increase Ch E …
Homo sapiens [3] = conditions: clinical, oral, capsule
Rattus norvegicus [4] = conditions: oral
Homo sapiens [5] = conditions: clinical, oral, diet
Rattus norvegicus [6] = conditions: subchronic
Cricetulus sp. [7] = conditions: subchronic; duration: 13 weeks; inhalation; M/F; Hamster; increased hemolysis, abnormal rbc morphology, and increased spleen weight
Mus musculus [8] = conditions: subchronic, inhalation
Rattus norvegicus [9] = test system: Rattus norvegicus
Oryctolagus sp. [10] = conditions: acute; dermal; New Zealand
Cricetulus sp. [11] = conditions: oral, gavage, Hamster
Mus musculus [12] = test system: Mus musculus
Mus musculus [13] = conditions: acute; duration: 1 days; oral; M; DD; hepatic
Oryctolagus sp. [14] = conditions: developmental; inhalation; intermittent; Fetus: Toxicity
Oryctolagus sp. [15] = conditions: developmental; oral; M/F; fetal toxicity/ malformations
Sus scrofa = conditions: duration: 14 weeks, oral, M/F, Not specified, Changes in serum testosterone and estradiol and testes weight
Rattus norvegicus [16] = assay: LD100; higher = less toxic; conditions: acute; oral
Anas platyrhynchos = conditions: oral
Rattus norvegicus [17] = conditions: subchronic; duration: 12 weeks; oral; diet; Kidney: Toxicity + Liver: Toxicity
Rattus norvegicus [18] = assay: LD0; higher = less toxic; conditions: acute; dermal; semiocclusive; Sprague-Dawley
Oryctolagus sp. [19] = conditions: acute; duration: 1 days; inhalation; M; New Zealand; neurological
Homo sapiens [20] = conditions: clinical; duration: 56 days; oral; capsule; M; neurological
Homo sapiens [21] = conditions: clinical; oral; M/F; Decreased respiratory function
[22] = duration: 13 weeks, inhalation, M/F, increased hemolysis, abnormal rbc morphology, and increased spleen weight
[23] = duration: 12 weeks, Increased hemolysis, increased spleen weight, and impaired compensatory erythropoiesis
[24] = duration: 13 weeks, M/F, increased hemolysis, abnormal rbc morphology, and increased spleen weight
[25] = chronic, duration: 14 weeks, inhalation, F, Fischer 344
[26] = chronic, duration: 14 weeks, inhalation, M, Fischer 344
[27] = chronic, duration: 14 weeks, inhalation, F, B6C3F1
[28] = chronic, duration: 14 weeks, inhalation, M, B6C3F1
[29] = reproduction developmental, duration: 10 days, oral, gavage, F, CD1

## CCOP(=S)(OCC)Oc1nc(Cl)c(Cl)cc1Cl [Chlorpyrifos]
Rattus norvegicus [1]; chronic, duration: 2 years, oral, diet, Sherman Wistar, neurological
  NOAEL: 0.1 mg/kg-day
Rattus norvegicus [2]
  NOEL: 0.1 mg/kg-day
Homo sapiens [3]; duration: 20 days, Blood: Decreased cholinesterase activity
  NOEL: 0.03 mg/kg-day
Rattus norvegicus [4]; Hershberger, duration: 10 days, gavage, Sprague-Dawley, inactive + Negative + Negative + anti-androgenic + negative
  NOEL: 2 mg/kg-day
Rattus norvegicus [4]; uterotrophic, duration: 56 days, Active
  LEL: 0.1 mg/kg-day

## CCN(CC)c1nc(C)cc(OP(=S)(OC)OC)n1 [Pirimiphos-methyl]
Homo sapiens [5]; duration: 28 days, M, Borderline ChE depression
  NOEL: 0.25 mg/kg-day
Homo sapiens [5]; duration: 56 days, M/F, Transient plasma ChE depression
  NOEL: 0.25 mg/kg-day

## [AsH3] [Arsine]
Rattus norvegicus [6]; [22]
  LOAEL: 1.6 mg/m3
  NOAEL: 0.08 mg/m3
Cricetulus sp. [7]
  LOAEL: 1.6 mg/m3
  NOAEL: 0.08 mg/m3
Mus musculus [8]; [23]
  LOAEL: 1.6 mg/m3
  NOAEL: 0.08 mg/m3
Mus musculus [8]; [24]
  LOAEL: 1.6 mg/m3
  NOAEL: 0.08 mg/m3

## CC1=CCC2CC1C2(C)C (stereo not drawn) [alpha-Pinene]
Rattus norvegicus [9]; acute, oral, Wistar
  LD50: 3700 mg/kg
Rattus norvegicus [9]; [25]
  LOAEL: 340 mg/kg-day
  NOAEL: 170 mg/kg-day
Rattus norvegicus [9]; [26]
  LOAEL: 42 mg/kg-day
  NOAEL: 21 mg/kg-day
Rattus norvegicus [9]; developmental, duration: 10 days, oral, gavage, Wistar
  NOAEL: 260 mg/kg-day
Rattus norvegicus [9]; reproduction developmental, duration: 10 days, oral, gavage, F, Wistar
  NOAEL: 260 mg/kg-day
Oryctolagus sp. [10]
  LD50: > 5000 mg/kg
Cricetulus sp. [11]; developmental, duration: 10 days
  NOAEL: 600 mg/kg-day
Cricetulus sp. [11]; reproduction developmental, duration: 10 days, F
  NOAEL: 600 mg/kg-day
Cricetulus sp. [11]; reproduction developmental
  NOAEL: 600 mg/kg-day
Mus musculus [12]; [27]
  LOAEL: 557 mg/m3
  NOAEL: 279 mg/m3
Mus musculus [12]; [28]
  LOAEL: 557 mg/m3
  NOAEL: 279 mg/m3
Mus musculus [12]; [29]
  NOAEL: 560 mg/kg-day

## S=C=S [Carbon disulfide]
Mus musculus [13]
  LOAEL: 3 mg/kg-day
Oryctolagus sp. [14]
  NOEL: 11 mg/kg-day
Oryctolagus sp. [15]
  NOEL: 11 mg/kg-day

## CC(=O)O[C@H]1CC[C@H]2[C@@H]3CCC4=CC(=O)CCC4=C3C=C[C@]12C [Trenbolone acetate]
Sus scrofa; chronic, diet
  LOEL: 0.002 mg/kg-day
Sus scrofa; feed
  LOEL: 2 µg/kg-day

## CC(O)C(=O)O (stereo not given) [Lactic acid]
Rattus norvegicus [16]
  LD100: 11200 mg/kg
Rattus norvegicus [9]; acute, Inhalation, Fischer 344
  LC50: > 7.94 µg/mL
Rattus norvegicus [9]; subchronic, duration: 13 weeks, dermal, F, Sprague-Dawley
  LOAEL: 886 mg/kg-day
Oryctolagus sp. [10]
  LD50: > 2000 mg/kg
Mus musculus [12]; reproduction developmental, duration: 10 days, oral, gavage, CD1, generation: F1
  NOAEL: ≥ 570 mg/kg-day
Mus musculus [12]; [29]
  NOAEL: ≥ 570 mg/kg-day

## ClC1C(Cl)C(Cl)C(Cl)C(Cl)C1Cl (stereo not given) [Lindane]
Rattus norvegicus [1]; developmental, duration: 13 weeks, oral, drinking water, Sprague-Dawley, developmental
  NOAEL: 7.6e-05 mg/kg-day
Rattus norvegicus [1]; developmental, duration: 1 days, oral, gavage, Bor:spf, developmental
  LOAEL: 1 mg/kg-day
Anas platyrhynchos
  LOAEL: 20 mg/kg-day
  NOAEL: 2 mg/kg-day
Rattus norvegicus [17]
  NOAEL: 0.33 mg/kg-day
Rattus norvegicus [6]; oral, F, liver and kidney toxicity
  NOAEL: 0.33 mg/kg-day
Rattus norvegicus [6]; oral, M, liver and kidney toxicity
  LOAEL: 1.55 mg/kg-day

## C[S-].[Na+] [Sodium thiomethoxide]
Rattus norvegicus [9]; acute, oral, Sprague-Dawley
  LD50: ≥ 75 mg/kg and ≤ 161 mg/kg
Rattus norvegicus [9]; acute, oral, gavage, Sprague-Dawley
  LD50: 109 mg/kg and ≥ 84 mg/kg and ≤ 146 mg/kg
Rattus norvegicus [18]
  LD0: ≥ 400 mg/kg

## CCOC(=O)CC(SP(=S)(OC)OC)C(=O)OCC (stereo not given) [Malathion]
Rattus norvegicus [1]; chronic, duration: 2 years, oral, diet, Fischer-344, neurological
  NOAEL: 2 mg/kg-day
Rattus norvegicus [1]; subchronic, duration: 13 weeks, inhalation, whole body, Sprague-Dawley, respiratory
  LOAEL: 100 mg/m3
Oryctolagus sp. [19]
  NOAEL: 65 mg/m3
Homo sapiens [20]
  NOAEL: 0.23 mg/kg-day
Homo sapiens [3]; duration: 47 days, Blood: Hematological effects
  NOEL: 0.23 mg/kg-day
Homo sapiens [5]; M, rbc che depression
  LEL: 0.34 mg/kg-day
  NOEL: 0.23 mg/kg-day

## CC(C)NCC(O)COc1cccc2[nH]c3ccccc3c12 (stereo not given) [Carazolol]
Homo sapiens [21]
  NOEL: 0.0005 mg/kg-day
